Reference: paper PMC7269146, “Jingzhaotoxin-X, a gating modifier of Kv4.2 and Kv4.3 potassium channels purified from the venom of the Chinese tarantula Chilobrachys jingzhao” (The Journal of Venomous Animals and Toxins Including …, 2020)
Where a SMILES comes first, the peptide text is derived from it. Bridges are numbered along the chain shown (N, C = ends).

Tests used:
[1] = tested on: LVA Cav channels; assay: whole-cell voltage-clamp, LVA Cav currents of rat DRG neurons; format: cell-based; settings: 10 μM, n = 3
[2] = target: T1, Kv4.3 (Rattus norvegicus, UniProt Q62897); assay: current-voltage relationship / activation, Kv4.3; format: cell-based
T1 construct: expressed in transfected cells; host or cells: HEK293t
T1 sequence (Q62897 1-655): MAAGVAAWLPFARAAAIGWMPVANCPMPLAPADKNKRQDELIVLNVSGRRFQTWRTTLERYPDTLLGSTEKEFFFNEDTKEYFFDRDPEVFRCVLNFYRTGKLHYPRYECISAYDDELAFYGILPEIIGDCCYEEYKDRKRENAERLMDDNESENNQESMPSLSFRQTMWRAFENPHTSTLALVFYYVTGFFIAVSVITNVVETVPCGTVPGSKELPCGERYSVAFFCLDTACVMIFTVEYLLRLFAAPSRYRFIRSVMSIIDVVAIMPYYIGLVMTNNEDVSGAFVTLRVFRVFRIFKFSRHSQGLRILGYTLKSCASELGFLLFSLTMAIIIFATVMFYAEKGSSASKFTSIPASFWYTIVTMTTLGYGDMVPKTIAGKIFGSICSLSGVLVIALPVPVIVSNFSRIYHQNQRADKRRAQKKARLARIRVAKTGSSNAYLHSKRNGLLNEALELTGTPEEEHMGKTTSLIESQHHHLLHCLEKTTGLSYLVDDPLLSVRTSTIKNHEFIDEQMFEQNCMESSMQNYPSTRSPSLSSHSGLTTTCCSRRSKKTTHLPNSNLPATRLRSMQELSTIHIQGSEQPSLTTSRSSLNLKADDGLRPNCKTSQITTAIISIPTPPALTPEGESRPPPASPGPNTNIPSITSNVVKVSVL
Description: Rat cDNA genes encoding Kv4.2 (Accession: NM_031730.2) and Kv4.3 (Accession: AB003587.1) were subcloned to vector pcDNA3.1. In addition, human cDNA genes encoding Nav1.7 (Accession: DQ857292.1) and Nav1.5 (Accession: AB158469.2) were subcloned to vectors pcDNA3.1-mod and pcDNA3.1, separately. Then, Kv4.2, Kv4.3, Nav1.5 and Nav1.7 constructs were transiently transfected into the human embryonic kidney 293t (HEK293t) cells using lipofectamine 2000 (Invitrogen, USA) in accordance with manufacturer protocols. Thereafter, HEK293 cells were inoculated within Dulbecco’s modified Eagle’s medium (DMEM) containing 10% fetal bovine serum (FBS) at 5% CO2 and 37°C. The Kv4.3 channel and the Kv4.2 counterpart were then transfected in the absence of β subunit. Subsequently, cells were incubated with a DNA-lipofectamine mixture (one reporter plasmid for green fluorescence protein and channel constructs) for 4-6 h, and were washed with the fresh medium.
An EPC-10 patch-clamp amplifier (HEKA, Germany) was employed to record the potassium currents at the configuration of whole-cell patch-clamp under an ambient temperature of 22-25°C. The resistance was 2.0-3.0 MΩ when the recording pipette contained a full volume of internal solution (supplemented with 140 mM KCl, 10 mM HEPES, 2.5 mM MgCl2, 5 mM ATP and 11 mM EGTA). KOH was utilized to adjust the pH to 7.2, while sucrose was employed to adjust the osmolarity to 310 mOsm/L. The culture medium was replaced with an external solution containing 150 mM NaCl, 2.5 mM CaCl2, 10 mM HEPES, 2 mM MgCl2, 5 mM KCl, and 10 mM D-glucose. Similarly, sucrose and NaOH were applied to adjust the osmolarity to 330 mOsm/L and pH to 7.4. […] The series resistance was maintained at about 5 MΩ, with 65-70% compensation. Finally, the leakage currents and linear capacitance were subtracted digitally according to the P/4 protocol.
The voltage-dependent inhibition of Kv4.2 and Kv4.3 channels by JZTX-X was determined by the depolarizing pulses to potentials in 10 mV steps from −80 to +60 mV at an interval of 10 s and the holding potential of -80 mV. […] For quantifying the voltage-depending inhibition of Kv4.2 and Kv4.3 channels, the relative current was drawn based on the membrane potential. Under control conditions, those threshold potentials to initially activate Kv4.2 and Kv4.3 currents were around -40 mV. The JZTX-X treatment at 500 nM inhibited the Kv4.2 and Kv4.3 currents, and then the I-V relation shifted to the right by about 30 mV (from -39.5 ± 1.9 mV to -11.3 ± 1.2 mV ) and 40 mV (from -39.8 ± 1.5 mV to -2.5 ± 0.9 mV ), separately (Fig. 5C and D). Additionally, the channel conductance also shifted rightward by around 30 mV (data not shown).
Figure 5. […] All data were expressed as mean ± S.E.M (n = 5-7 cells).

CC(C)C[C@@H]1NC(=O)[C@H](CCCCN)NC(=O)[C@H](Cc2ccc(O)cc2)NC(=O)[C@@H]2CSSC[C@@H]3NC(=O)[C@H](Cc4ccc(O)cc4)NC(=O)[C@H](Cc4ccccc4)NC(=O)CNC(=O)[C@H](C)NC(=O)[C@H](CSSC[C@H](NC(=O)[C@@H](N)CC(C)C)C(=O)N[C@@H](CO)C(=O)N[C@@H](CCCNC(=N)N)C(=O)N[C@@H](CCC(=O)O)C(=O)NCC(=O)N[C@@H](CCC(=O)O)C(=O)N[C@@H](Cc4ccccc4)C(=O)N2)NC(=O)[C@H](CSSC[C@@H](C(=O)N[C@@H](Cc2ccc(O)cc2)C(=O)N[C@@H](CCCNC(=N)N)C(=O)N[C@@H](CC(N)=O)C(=O)O)NC(=O)[C@H](Cc2c[nH]cn2)NC(=O)[C@H](CC(C)C)NC(=O)[C@H](C(C)C)NC(=O)[C@H](Cc2ccccc2)NC(=O)[C@H](C)NC(=O)[C@H](CCCCN)NC3=O)NC(=O)[C@H](CCCCN)NC(=O)[C@H](CCCNC(=N)N)NC1=O [JZTX-X, Jingzhaotoxin-X] (H-LCSREGEFCYKLRKCCAGFYCKAFVLHCYRN-OH; disulfide 2-16, 9-21, 15-28; N-terminus assumed)
inhibition of LVA Cav current [1]: less than 5% | I-V relation potential after toxin, Kv4.3 ([2]; 500 nM, control -39.8 ± 1.5 mV, holding -80 mV, n = 5-7 cells): -2.5 ± 0.9 mV | rightward shift of I-V relation, Kv4.3 ([2]; 500 nM, holding -80 mV): ~40 mV | rightward shift of channel conductance, Kv4.3 ([2]; data not shown, channel not named separately): about 30 mV | voltage dependence of Kv4.3 inhibition ([2]; test potentials -10 to +60 mV, 100 nM and 500 nM): dependent on voltage
